Where two headings read alike, the source gives them in different places.
Tested on: stably HCV RNA-replicating cell line, AVA5 (genotype 1b, subgenomic replicon)
Assay: HCV replicon assay (intracellular HCV RNA levels by blot hybridization, normalized to β-actin RNA)
Assay type: cell-based
Details: Hepatitis C virus, AVA5 cells, HCV genotype 1b subgenomic replicon, compounds added daily for three days, HCV RNA assessed 72 hours after treatment
Method: Antiviral activity of test compounds was assessed (Okuse, et al., Antivir. Res. 2005 65:23) in the stably HCV RNA-replicating cell line, AVA5 (genotype 1b, subgenomic replicon, Blight, et al., Sci. 2000 290:1972). Compounds were added to dividing cultures daily for three days. […] Intracellular HCV RNA levels and cytotoxicity were assessed 72 hours after treatment.
Quadruplicate cultures for HCV RNA levels and cytoxicity (on 96-well plates) were used. A total of 12 untreated control cultures, and triplicate cultures treated with α-interferon (concentrations of: 10 IU/mL, 3.3 IU/mL, 1.1 IU/mL and 0.37 IU/mL) and 2′C-Me-C (concentrations of: 30 μM, 10 μM, 3.3 μM and 1.1 μM) served as assay controls.
Intracellular HCV RNA levels were measured using a conventional blot hybridization method, in which HCV RNA levels are normalized to the levels of β-actin RNA in each individual culture (Okuse, et al., Antivir. Res. 2005 65:23). Cytotoxicity was measured using an established neutral red dye uptake assay (Korba and Gerin, Antivir. Res. 1992 19:55; Okuse, et al., Antivir. Res. 2005 65:23). HCV RNA levels in the treated cultures are expressed as a percentage of the mean levels of RNA detected in untreated cultures. The absorbance of the internalized dye at […] (A510) was used for quantitative analysis.
Compounds were dissolved in 100% tissue culture grade DMSO (Sigma, Inc.) at 10 mM. Aliquots of test compounds sufficient for one daily treatment were made in individual tubes and all material was stored at −20° C. For the test, the compounds were suspended into culture medium at room temperature, and immediately added to the cell cultures. Compounds were analyzed separately in two groups with separate assay controls. The concentrations of the test compounds were run at concentrations of 10 μM, 3.3 μM, 1.1 μM and 0.37 μM. CC50, EC50 and EC90 were determined using the concentration response curve.

| Compound | EC50 (read-out: Activity (EC50)) | EC50 (read-out: EC50) |
| --- | --- | --- |
| C[C@@H](O)[C@H]1O[C@@H](n2ccc3c(N)ncnc32)[C@H](O)[C@@H]1O | < 30 µM |  |
| CC(O)[C@H]1O[C@@H](n2ccc(N)nc2=O)[C@@H](F)[C@@H]1O (stereo partly drawn) | < 30 µM |  |
| C[C@@H](O)[C@H]1O[C@@H](n2ccc(N)nc2=O)C(F)(F)[C@@H]1O | < 5 µM |  |
| C[C@@H](O)[C@H]1O[C@@H](n2cnc3c(N)ncnc32)[C@](C)(O)[C@@H]1O | < 30 µM |  |
| C[C@H](O)[C@H]1O[C@@H](n2ccc(N)nc2=O)[C@@H](O)[C@@H]1O | < 200 µM |  |
| CC(O)[C@H]1O[C@@H](n2cnc3c(=O)[nH]c(N)nc32)[C@H](O)[C@@H]1O (stereo partly drawn) | < 200 µM |  |
| CC(OC(=O)c1ccccc1)[C@H]1O[C@@H](N2C=CC(N)NC2=O)[C@](C)(OC(=O)c2ccccc2)[C@@H]1OC(=O)c1ccccc1 (stereo partly drawn) | < 30 µM |  |
| C[C@H](O)[C@H]1O[C@@H](n2ccc(N)nc2=O)C(F)(F)[C@@H]1O | < 5 µM |  |
| C[C@H](O)[C@H]1O[C@@H](n2ccc(N)nc2=O)[C@H](F)[C@@H]1O | < 30 µM |  |
| CC(=O)Nc1ccn([C@@H]2O[C@H]([C@H](C)OC(C)=O)[C@@H](OC(C)=O)C2(F)F)c(=O)n1 | < 5 µM |  |
| CCC(=O)O[C@@H](C)[C@H]1O[C@@H](n2ccc(N)nc2=O)C(F)(F)[C@@H]1O | < 5 µM |  |
| CCC(=O)O[C@@H](C)[C@H]1O[C@@H](n2ccc(N)nc2=O)C(F)(F)[C@@H]1OC(=O)CC | < 5 µM |  |
| CC(=O)O[C@@H](C)[C@H]1O[C@@H](n2ccc(N)nc2=O)C(F)(F)[C@@H]1O | < 5 µM |  |
| CC(=O)O[C@@H](C)[C@H]1O[C@@H](n2ccc(N)nc2=O)C(F)(F)[C@@H]1OC(C)=O | < 5 µM |  |
| COC(=O)[C@@H](C)N[P@](=O)(Oc1ccccc1)O[C@H](C)[C@H]1O[C@@H](n2cnc3c(N)ncnc32)[C@H](O)[C@@H]1O | < 5 µM |  |
| C[C@@H](O)[C@H]1O[C@@H](n2ccc(N)nc2=O)[C@@H](O)[C@@H]1O | < 5 µM |  |
| C[C@H](O)C1O[C@@H](n2cnc3c(N)ncnc32)[C@](C)(O)[C@@H]1O (stereo in doubt) [Compound 9, 2′,5′-C-dimethyladenosine] |  | 1 to 10 µM |
| CO[C@@H]1[C@H](O)[C@@H](CO)O[C@H]1n1ccc(N)nc1=O [Compound 8a, 2′-O-methylcytidine, reference compound] |  | 1 to 10 µM |

Source: patent publication US20100249068A1, “S[…] NUCLEOTIDE ANALOGS” (Alios BioPharma, Inc., priority 2009, published 2010)
